# According to the supplement of paper PMC10307832:
# Tests used:
# Test in all cases: relative viability (nuclei count vs DMSO), 5 days (fraction); higher = more cells survive
# [1] = compound: C1=CC(=CC=C1NC(=S)NNC2=C(C=C(C=C2[N+](=O)[O-])C(F)(F)F)[N+](=O)[O-])F [Kobe2602] + NC(=O)Nc1cc(-c2cccc(F)c2)sc1C(=O)N[C@H]1CCCNC1 [AZD7762] (partner 0.2 µM)
# In short: (§1)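 Each reported value is a median over duplicate plates. It expresses relative viability: treated-well nuclei count divided by vehicle-well nuclei count. Lung cancer cell lines in 1536-well plates were dosed by pin tool a day after seeding, alone with one drug or with a fixed anchor-drug dose plus five library-drug doses (not always all listed) in √10 steps, and nuclei were counted after 5 days.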
# [2] = compound: C1=CC(=CC=C1NC(=S)NNC2=C(C=C(C=C2[N+](=O)[O-])C(F)(F)F)[N+](=O)[O-])F [Kobe2602] + O=C(CCCCCCC(=O)Nc1ccccc1)NO [Vorinostat] (partner 1 µM)
# In short: as §1
# [3] = compound: C1=CC(=CC=C1NC(=S)NNC2=C(C=C(C=C2[N+](=O)[O-])C(F)(F)F)[N+](=O)[O-])F [Kobe2602] + O=C(c1cc(Cc2n[nH]c(=O)c3ccccc23)ccc1F)N1CCN(C(=O)C2CC2)CC1 [Olaparib] (partner 8 µM)
# In short: as §1
# [4] = compound: COc1cc2nccc(Oc3ccc(NC(=O)C4(C(=O)Nc5ccc(F)cc5)CC4)cc3)c2cc1OC [Cabozantinib] + O=C(CCCCCCC(=O)Nc1ccccc1)NO [Vorinostat] (partner 1 µM)
# In short: as §1
Cell Line,relative viability ([1]; first compound 0.2 µM),relative viability ([1]; first compound 0.6325 µM),relative viability ([1]; first compound 2 µM),relative viability ([1]; first compound 6.325 µM),relative viability ([1]; first compound 20 µM),relative viability ([2]; first compound 0.2 µM),relative viability ([2]; first compound 0.6325 µM),relative viability ([2]; first compound 2 µM),relative viability ([2]; first compound 6.325 µM),relative viability ([2]; first compound 20 µM),relative viability ([3]; first compound 0.2 µM),relative viability ([3]; first compound 0.6325 µM),relative viability ([3]; first compound 2 µM),relative viability ([3]; first compound 6.325 µM),relative viability ([3]; first compound 20 µM),relative viability ([4]; first compound 0.02 µM),relative viability ([4]; first compound 0.06325 µM),relative viability ([4]; first compound 0.2 µM),relative viability ([4]; first compound 0.6325 µM),relative viability ([4]; first compound 2 µM)
LXF-289,1.06,1.08,1.08,1.06,1.08,0.677,0.776,0.75,0.659,0.775,1.05,1.1,1.05,0.955,1.04,0.755,0.765,0.659,0.738,0.756
NCI-H2087,1.24,1.22,1.22,1.32,1.13,0.628,0.799,0.64,0.714,0.568,0.564,0.696,0.705,0.639,0.637,0.752,0.781,0.563,0.49,0.715
HCC-78,0.7,0.675,0.748,0.588,0.774,0.485,0.444,0.433,0.452,0.507,0.852,0.809,0.904,0.591,0.907,–,0.415,0.394,0.344,0.295
NCI-H1793,0.654,0.352,0.641,0.287,0.539,0.702,0.881,0.764,0.795,0.936,0.91,0.852,0.744,0.883,0.977,0.652,1.12,–,0.744,0.759
H3255,0.868,0.956,0.868,0.775,0.864,0.772,0.841,0.776,0.853,0.78,0.561,0.562,0.515,0.532,0.559,0.887,0.791,–,0.769,0.926
HCC-15,1.03,1.2,1.02,1.17,1.43,0.908,0.912,0.814,0.815,0.812,0.691,0.727,0.609,0.742,0.837,0.913,0.893,0.861,0.799,0.824
PC-14,0.39,0.445,0.348,0.351,0.308,0.637,0.788,0.739,0.75,0.413,0.24,0.356,0.256,0.259,0.101,0.691,0.956,–,0.692,0.748
HCC-44,0.951,0.952,1.04,0.982,0.892,0.999,1.04,1.08,1.05,0.99,0.965,0.983,0.955,0.951,0.898,1.1,1.29,1.08,1.14,1.08
